Source: patent US20060148030A1, “Nuclear receptor err y 3” (FUJISAWA PHARMACEUTICAL CO., LTD, priority 2002, published 2006)
Where two headings read alike, the source gives them in different places.

T1: PPARγ (Homo sapiens, UniProt P37231)
T1 construct: expressed in transfected cells; host or cells: CV-1 (African green monkey kidney)
T1 sequence (P37231 1-477 isoform P37231-2): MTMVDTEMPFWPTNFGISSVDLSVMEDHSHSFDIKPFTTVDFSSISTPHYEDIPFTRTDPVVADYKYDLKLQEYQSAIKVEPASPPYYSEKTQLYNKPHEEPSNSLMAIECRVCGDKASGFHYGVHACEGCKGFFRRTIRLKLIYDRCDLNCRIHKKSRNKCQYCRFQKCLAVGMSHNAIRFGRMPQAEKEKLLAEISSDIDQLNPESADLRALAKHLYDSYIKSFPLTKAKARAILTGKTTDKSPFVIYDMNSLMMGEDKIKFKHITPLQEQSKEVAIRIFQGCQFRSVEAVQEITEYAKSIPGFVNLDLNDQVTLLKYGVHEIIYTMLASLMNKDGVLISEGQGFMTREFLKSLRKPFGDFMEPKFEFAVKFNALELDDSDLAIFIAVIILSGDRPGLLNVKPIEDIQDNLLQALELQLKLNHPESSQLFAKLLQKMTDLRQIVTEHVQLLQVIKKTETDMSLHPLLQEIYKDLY
T1 sequence (P19793 1-462 partner): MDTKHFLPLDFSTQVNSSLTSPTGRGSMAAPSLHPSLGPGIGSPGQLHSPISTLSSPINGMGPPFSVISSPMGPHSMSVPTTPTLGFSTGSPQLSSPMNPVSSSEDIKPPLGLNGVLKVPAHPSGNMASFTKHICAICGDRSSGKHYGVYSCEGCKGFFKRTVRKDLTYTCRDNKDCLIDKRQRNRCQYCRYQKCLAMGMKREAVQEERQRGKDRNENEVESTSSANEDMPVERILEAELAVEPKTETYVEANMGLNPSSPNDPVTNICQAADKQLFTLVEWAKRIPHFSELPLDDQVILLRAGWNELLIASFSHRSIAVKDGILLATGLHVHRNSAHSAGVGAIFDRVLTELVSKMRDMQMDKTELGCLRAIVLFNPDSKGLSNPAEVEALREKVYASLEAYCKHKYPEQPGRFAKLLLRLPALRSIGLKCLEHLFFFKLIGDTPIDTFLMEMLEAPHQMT

B1: ERRγ3: novel ERRγ isoform, nuclear receptor protein of 396 amino acids (SEQ ID NO: 2) lacking part of the DNA binding domain (protein, listed as Homo sapiens)
chain: MSNKDRHIDSSCSSFIKTEPSSPASLTDSVNHHSPGGSSDASGSYSSTMNGHQNGLDSPPLYPSAPILGGSGPVRKLYDDCSSTIVEDPQTKCEYMLNSMPKRLCLVCGDIASGYHYGVASCEACKAFFKRTIQGVRLDRVRGGRQKYKRRIDAENSPYLNPQLAQPAKKPYNKIVSHLLVAEPEKIYAMPDPTVPDSDIKALTTLCDLADRELVVIIGWAKHIPGFSTLSLADQMSLLQSAWMEILILGVVYRSLSFEDELVYADDYIMDEDQSKLAGLLDLNNAILQLVKKYKSMKLEKEEFVTLKAIALANSDSMHIEDVEAVQKLQDVLHEALQDYEAGQHMEDPRRAGKMLMTLPLLRQTSTKAVQHFYNIKLEGKVPMHKLFLEMLEAKV

Experiments:
ERRγ2 = details: stated as known property, cited from earlier work
Sequence of ERRγ2 (P62508 whole entry): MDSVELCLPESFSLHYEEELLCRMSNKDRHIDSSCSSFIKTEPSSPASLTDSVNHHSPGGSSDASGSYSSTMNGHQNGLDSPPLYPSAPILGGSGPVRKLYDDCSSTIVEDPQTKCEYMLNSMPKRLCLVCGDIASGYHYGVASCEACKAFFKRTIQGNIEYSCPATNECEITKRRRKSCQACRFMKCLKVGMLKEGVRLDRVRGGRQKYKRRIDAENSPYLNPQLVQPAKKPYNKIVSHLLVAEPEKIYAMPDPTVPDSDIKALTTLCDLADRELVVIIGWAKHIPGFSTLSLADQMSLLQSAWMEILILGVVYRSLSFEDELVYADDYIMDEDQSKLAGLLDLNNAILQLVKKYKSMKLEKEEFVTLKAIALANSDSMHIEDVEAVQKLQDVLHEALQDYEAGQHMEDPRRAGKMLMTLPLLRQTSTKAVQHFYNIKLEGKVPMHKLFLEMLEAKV

PPARγ = target: T1, PPARγ; test: Reporter gene assay, ERRγ3 coexisted with PPARγ, pGVP2-PPRE1 in CV-1 cells; assay type: cell-based; details: 10^−6 M rosiglitazone, FIG. 24
Description: Transfection was performed as follows: CV-1 cells were resuspended in DMEM supplemented with 10% fetal bovine serum, 2000 U/l of penicillin G, and 100 mg/l of streptomycin to a concentration of 2×10^5 cells/2.5 ml. This was then seeded to a 6-well plate at 2.5 ml per well, and incubated for 18-24 hours in a CO2 incubator at 37° C. and 5% CO2. 1 μg of each of the expression plasmids for the transcription factors, the luciferase reporter plasmid, and another luciferase reporter plasmid used for normalization of the measured values (pRL-TK), were dissolved in Opti-MEM (Gibco BRL), to a total of 150 μl. […] Luciferase activity was measured using the Dual-Luciferase™ Reporter Assay System (Promega). […] The protocol for measurement was as follows: 50 μl of Luciferase Assay Reagent II was added to each well, stirred for 0.3 seconds, and measured for one second. 50 μl of Stop&Glo™ Reagent was then added, stirred for 0.3 seconds, and measured for one second. The measured values for firefly luciferase activity were corrected by dividing by the value for the Renilla luciferase activity, the internal control. Average values and standard errors were calculated from triplicate samples.
The effect of ligands on the function of ERRγ3 in enhancing the transcriptional activation function of peroxisome proliferator activated receptor (PPAR) α, β, or γ was evaluated using the reporter gene assay (FIG. 24). […]

| Molecule | inhibition of the transcriptional activation function of ERRγ2 (ERRγ2) | inhibition of the transcriptional activation function of ERRγ2 (ERRγ2; listed as 4-OHT) | modifying effect on the transcriptional stimulation activity of PPARγ (PPARγ) |
| --- | --- | --- | --- |
| 4-hydroxytamoxifen [reference compound] | known to inhibit ERRγ2 activity | inhibiting their transcriptional activation function |  |
| B1 |  |  | did not show any significant modifying effect |
